# Measurements taken from patent US12492174B2, “Morpholine-3-carboxamide derivatives as prostaglandin E2 receptor 4 (EP4) agonists for the treatment of gastrointestinal and pulmonary diseases” (NXERA PHARMA UK LIMITED, priority 2022, dated 2025).
# Legend:
# human EP4 = target: T1, human EP4 (Homo sapiens, UniProt P35408); assay: cAMP Gs functional assay (HTRF cAMP dynamic-2); format: cell-based; settings: for Emax: HEK293, HEK293 cells transfected with EP4 Bacmam virus, positive control 10 uM PGE2; for EC50: HEK293 cells transfected with EP4 Bacmam virus, 30 mins at 37° C., −Log of the molarity (M), read-out: cAMP human EP4 pEC50 (converted)
# T1 construct: expressed in transfected cells; host or cells: HEK293 cells transduced with EP4 BacMam virus
# Description: Cloning, Baculovirus generation, large scale infection of HEK293 cells and membrane preparation: Human prostaglandin E2 receptor 4 (EP4) was cloned into pBacMam expression vector (GeneScript, UK). Transposition of EP4 DNA was performed using Invitrogen's Bac-to-Bac Baculovirus Expression Systems. P0 baculovirus was generated by transfecting SF9 Cells with bacmid DNA using Cellfectin II transfection reagent (ThermoFisher Scientific, UK). Following P0 generation P1 virus was then generated ready for large scale infection and membrane preparation. HEK293 cells were grown in DMEM (ThermoFisher Scientific, UK), supplemented with 10% heat inactivated fetal bovine serum (FBS). Cells were infected at a seeding density of 3.5 million cells/mL in 500 cm^3 flasks at 5% v/v EP4 Bacman. Expression was carried out over a 36 hr period at 37° C. with 5% CO2. The cells were removed using PBS and a cell scrapper. The cell culture was centrifuged at 2500 RPM for 10 mins at 4° C. The supernatant was then poured off and the pellet stored at −80° C. The pellet was defrosted and re-suspended in 15 mL of homogenising buffer (20 mM HEPES, 10 mM EDTA, pH 7.4). Then homogenised in mechanical homogeniser (VMR) for 10 seconds. The membrane was centrifuged in centrifuge tubes at 40,000 g for 15 mins at 4° C. The supernatant was poured away and re-suspended in 15 mL of homogenising buffer. Homogenised for 20 seconds. The membrane was centrifuged at 40,000 g for 45 mins at 4° C. The membrane was re-suspended in 3 mL of storage buffer (20 mM HEPES, 0.1 mM EDTA, pH 7.4) mixing well. The resulting membranes were then stored at −80° C.
# cAMP Gs Functional Assay: cAMP production following EP4 receptor activation was determined using the Homogeneous Time-Resolved Fluorescence (HTRF) cAMP dynamic-2 assay (Cisbio, France). HEK293 cells were transfected using a 0.5% EP4 Bacmam virus for 36 hours, before dissociating the cells, and freezing at −150° C.
# On the day of testing, increasing concentration of test compounds, alongside positive controls (10 uM PGE2 (Tocris, Abingdon, UK)) and negative control (DMSO (Sigma-Aldrich, UK) were added to a ProxiPlate-384 Plus, White 384-shallow well Mircoplate, (PerkinElmer, USA) using the ECHO dispense.
# Cells were defrosted in a water bath and resuspended in DMEM supplemented with 10% FBS before centrifuging at 1200 RPM for 5 mins to form a pellet. The pellet was resuspended in assay buffer (DMEM+0.5 mM IBMX (Tocris, Abingdon, UK)) to 0.5×10^6 cells/mL. Cell suspension, for a final assay concentration of 5000 cell/well was added using the multidrop to the pre-dispensed assay plate. The plate was then incubated at 37° C. for 30 mins, with 5% CO2. The cAMP production was determined as manufacturer's instructions, before plates were read on a PheraStar fluorescence plate reader (BMG LabTech, Germany).
# The pEC50 values (−Log of the molarity (M) in mol/liter) were calculated from the mid-point of the curve using dotmatics as shown in Table 3.
# [1] = Unidirectional Caco-2 cell permeability assay; format: in vitro ADME; settings: human, n=2, apical pH 6.5, basolateral pH 7.4, 1 hour, 37° C.
# Description: Caco-2 cells (ECACC) were seeded onto 24-well Transwell plates at 2×10^5 cells per well and used in confluent monolayers after a 21 day culture at 37° C. under 5% CO2. Test compounds were incubated at 10 μM, 0.2% DMSO final, n=2 in assay buffer (Hanks balanced salt solution supplemented with 25 mM HEPES, adjusted to pH 6.5). Hanks balanced salt solution supplemented with 25 mM HEPES, adjusted to pH 7.4 (0.2% DMSO final) was used for the basolateral chamber (as receiver).
# Incubations were performed at 37° C., with samples removed from both donor and acceptor chambers at T=0 and 1 hour and compound analysed by mass spectrometry (LC-MS/MS) including an analytical internal standard (0.5 μM carbamazepine).
# Apparent permeability (Papp) values are shown in Table 4 and were determined from the relationship:
# Where V is the volume of each Transwell compartment (apical 125 μL, basolateral 600 μL), and concentrations are the relative MS responses for compound (normalized to internal standard) in the donor chamber before incubation and acceptor chamber at the end of the incubation Area=area of cells exposed for drug transfer (0.33 cm^2).
# Lucifer Yellow (LY) was added to the apical buffer in all wells to assess viability of the cell layer. As LY cannot freely permeate lipophilic barriers, a high degree of LY transport indicates poor integrity of the cell layer and wells with a LY Papp>10×10^−6 cm/s were rejected.
# Compound recovery from the wells was determined from MS responses (normalized to internal standard) in donor and acceptor chambers at the end of incubation compared to response in the donor chamber pre-incubation.
# T1 sequence (P35408 whole entry): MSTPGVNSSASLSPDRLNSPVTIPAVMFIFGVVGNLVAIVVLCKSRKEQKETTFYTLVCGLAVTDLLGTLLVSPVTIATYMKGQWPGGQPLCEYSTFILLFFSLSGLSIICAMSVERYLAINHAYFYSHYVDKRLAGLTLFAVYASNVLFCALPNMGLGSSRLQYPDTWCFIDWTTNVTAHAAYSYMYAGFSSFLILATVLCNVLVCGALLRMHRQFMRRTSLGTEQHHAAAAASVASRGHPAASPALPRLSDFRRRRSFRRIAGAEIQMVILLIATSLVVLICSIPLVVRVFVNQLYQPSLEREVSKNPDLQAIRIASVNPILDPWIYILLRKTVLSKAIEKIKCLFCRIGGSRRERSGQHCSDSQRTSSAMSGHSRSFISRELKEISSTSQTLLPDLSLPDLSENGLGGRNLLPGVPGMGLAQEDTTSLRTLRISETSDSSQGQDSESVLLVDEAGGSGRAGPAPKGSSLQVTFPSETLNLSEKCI
Emax (human EP4),EC50 (human EP4),"Papp A→B at 1 h, 10 μM [1]",SMILES
93%,1e-08 M,0.48 ×10⁻⁶ cm/s,"C[C@H](NC(=O)[C@H]1COCCN1Cc1ccc(O)c(-c2ccc(C(N)=O)cc2)c1)c1ccc(C(=O)O)cc1 [Example 23, 4-[(1S)-1-[[(3R)-4-[[3-(4-carbamoylphenyl)-4-hydroxy-phenyl]methyl]morpholine-3-carbonyl]amino]ethyl]benzoic acid]"
96%,6.31e-08 M,0.57 ×10⁻⁶ cm/s,"Cc1cc(C(N)=O)ccc1-c1cc(CN2CCOC[C@@H]2C(=O)N[C@@H](C)c2ccc(C(=O)O)cc2)ccn1 [Example 3, 4-[(1S)-1-[[(3R)-4-[[2-(4-carbamoyl-2-methyl-phenyl)-4-pyridyl]methyl]morpholine-3-carbonyl]amino]ethyl]benzoic acid]"
100%,,0.23 ×10⁻⁶ cm/s,"Cc1cc(C(N)=O)ccc1-c1cncc(CN2CCOC[C@@H]2C(=O)N[C@@H](C)c2ccc(C(=O)O)c(O)c2)c1 [Example 28, 4-((S)-1-((R)-4-((5-(4-carbamoyl-2-methylphenyl)pyridin-3-yl)methyl)morpholine-3-carboxamido)ethyl)-2-hydroxy benzoic acid]"
99%,3.98e-10 M,0.78 ×10⁻⁶ cm/s,"Cc1cc(C(N)=O)ccc1-c1cc(O)cc(CN2CCOC[C@@H]2C(=O)N[C@@H](C)c2ccc(C(=O)O)c(O)c2)c1 [Example 18, 4-((S)-1-((R)-4-((4′-carbamoyl-5-hydroxy-2′-methyl-[1,1′-biphenyl]-3-yl)methyl)morpholine-3-carboxamido)ethyl)-2-hydroxybenzoic acid]"
96%,2.51e-08 M,0.26 ×10⁻⁶ cm/s,"C[C@H](NC(=O)[C@H]1COCCN1Cc1ccc(O)c(-c2ccc(S(N)(=O)=O)cc2)c1)c1ccc(C(=O)O)cc1 [Example 24, 4-[(1S)-1-[[(3R)-4-[[4-hydroxy-3-(4-sulfamoylphenyl)phenyl]methyl]morpholine-3-carbonyl]amino]ethyl]benzoic acid]"

# More lines, now with the values behind:
SMILES,Emax (human EP4),EC50 (human EP4),"Papp A→B at 1 h, 10 μM [1]"
"Cc1cc(OS(N)(=O)=O)ccc1-c1cc(O)cc(CN2CCOC[C@@H]2C(=O)N[C@@H](C)c2ccc(C(=O)O)cc2)c1 [Example 15, 4-[(1S)-1-[[(3R)-4-[[3-hydroxy-5-(2-methyl-4-sulfamoyloxy-phenyl)phenyl]methyl]morpholine-3-carbonyl]amino]ethyl]benzoic acid]",98%,3.98e-10 M,< 0.1 ×10⁻⁶ cm/s
"Cc1cc(C(N)=O)ccc1-c1cccc(CN2CCOC[C@@H]2C(=O)NCc2ccc(C(=O)O)c(F)c2)c1 [Example 13, 4-[[[(3R)-4-[[3-(4-carbamoyl-2-methyl-phenyl)phenyl]methyl]morpholine-3-carbonyl]amino]methyl]-2-fluoro-benzoic acid]",96%,1.26e-08 M,0.32 ×10⁻⁶ cm/s
"Cc1cc(C(N)=O)ccc1-c1cc(O)cc(CN2CCOC[C@H]2C(=O)N[C@H](C)c2ccc(C(=O)O)cc2)c1 [Example 38, 4-((R)-1-((S)-4-((4′-carbamoyl-5-hydroxy-2′-methyl-[1,1′-biphenyl]-3-yl)methyl)morpholine-3-carboxamido)ethyl)benzoic acid]",94%,2e-08 M,< 0.1 ×10⁻⁶ cm/s
"Cc1cc(C(N)=O)ccc1-c1cc(O)cc(CN2CCOC[C@@H]2C(=O)N[C@H](C)c2ccc(C(=O)O)cc2)c1 [Example 39, 4-((R)-1-((R)-4-((4′-carbamoyl-5-hydroxy-2′-methyl-[1,1′-biphenyl]-3-yl)methyl)morpholine-3-carboxamido)ethyl)benzoic acid]",99%,7.94e-11 M,0.35 ×10⁻⁶ cm/s
